pIC50: −log10 of the molar value.
How the values were obtained:
[1] = target: T1, GST-tagged KRAS G12D (2-169) (Homo sapiens, UniProt P01116, G12D); assay: Nucleotide exchange assay (NEA), HTRF of SOS-mediated GTP-DY-647P1 binding; format: biochemical; conditions: 5 nM GST-KRAS G12D, 20 nM SOScat, 150 nM GTP; compound 1 h at RT
T1 construct: GST-tagged KRAS^G12D (2-169, Reaction Biology, MSC-11-539); purchased Reaction Biology MSC-11-539 (KRAS G12D); MSC-11-502 (SOS1cat)
Method in brief: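 SOS1cat (564-1049)-driven loading of GTP-DY-647P1 onto KRAS G12D, read by HTRF with anti-GST Tb cryptate donor; compound preincubated with KRAS 1 h at RT. Final 5 nM KRAS, 20 nM SOScat, 150 nM GTP, pH 7.3 HEPES buffer; read up to 90 min at RT. Blanked to no-SOS1; 4-parameter fit of % inhibition.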

[2] = target: T2, KRAS G12D/RAF1 (Homo sapiens, UniProt P01116, G12D); assay: Protein-protein interaction (PPI) HTRF assay KRAS G12D/RAF1; format: binding; conditions: KRAS G12D/RAF1, GppNHp-loaded KRAS; 30 minutes pre-incubation
T2 construct: KRAS (1-169) proteins were expressed in E. coli at 18° C; His6-MBP (N, cleaved yes); made in house; host or cells: E. coli
Experimental: Biotinylated KRAS wt and KRAS G12DNV proteins were expressed and purified in conditions similar to those previously reported (Tran, et al., 2021) (Zhang, et al., 2020). Briefly, KRAS (1-169) proteins were expressed in E. coli at 18° C. with an upstream TEV cleavage site (ENLFYQS) followed an Avi tag sequence ([…]). KIRAS expression constructs contained both a His6 and maltose-binding protein (MBP) tags at the N-terminus for Ni-NTA column purification prior to overnight TEV cleavage and MBP column purification. The avi-tagged NRAS expression construct contained both a His6 tag and SUMO cleavage sige at the N-terminus for Ni-NTA column purification followed by His-ULP1 digestion overnight. All avi-tagged RAS proteins were dialyzed into buffer containing ATP, biotin, and BirA followed by purification over a second Ni-NTA column and then run over a size exclusion HiLoad™ 26/600 Superdex™ column in 20 mM HEPES, pH 7.5, 300 mM NaCl, 5 mM MgCl2, and 1 mM TCEP. Fractions containing the protein of interest were pooled, concentrated, and confirmed by intact mass spectrometry. To prepare ‘GTP’ loaded KRAS and NRAS, biotinylated KRAS or NRAS was nucleotide exchanged from GDP-bound protein to GppNHp-bound (Jena Biosciences, NU-401-50) protein in the presence of alkaline phosphatase and excess GppNHp as previously described and the resulting nucleotide content was confirmed by HPLC reverse phase analytical chromatography (Donohue, et al., 2019) (Tran, et al., 2021).
His-tagged RAF1 (52-131) was similarly expressed in E. coli at 18° C. overnight with an upstream TEV cleavage site. His-tagged RAF1 expression construct contained both a His6 and MBP tags at the N-terminus for Ni-NTA column purification followed by MBP-tagged TEV digestion overnight. RAF1 protein samples were further purified over a MBP column followed by a Ni-NTA column and a second MBP column. The fractions containing the protein of interest were pooled, concentrated, and further purified over a HiLoad™ 16/600 Superdex™ 75 pg size exclusion column into 20 mM HEPES, pH8.0, 200 mM NaCl, 5 mM TCEP.
When RAS proteins are in the active GTP-bound conformation, they bind the effector protein RAF1 at the N-terminus Ras-binding domain (RBD, residues 52-131) (Tran, et al., 2021). Homogenous time resolved fluorescence (HTRF) was used to monitor the interaction between wt or mutant KRAS and RAF1 or wt NRAS and RAFT. Compounds were assayed in the presence of KRAS G12D/V and RAF1 versus wt KRAS to assess activity against mutant and w.t. KRAS. Similarly, compounds were then assayed in the presence of w.t. NRAS and RAF1 to assess RAS isoform selectivity. In all assay formats, His-tagged RAF1 protein was incubated with the HTRF donor, anti-6His Tb Cryptate gold (Cisbio 61DB10RDF), and biotinylated RAS proteins were incubated with the HTRF acceptor, streptavidin-d2 (CisBio 610SADLA). The intensity of the fluorescence signal emitted is proportional to binding between the two proteins. The donor solution was prepared by mixing 16 nM His-tagged RAF1 in protein dilution buffer with 1:100 anti-6His Tb cryptate in PPI-Terbium detection buffer. 16 nM biotinylated RAS protein was diluted into protein dilution buffer (50 mM Tris-HCl pH 7.5, 150 mM NaCl, 0.1 mM MgCl2, 1 mM TCEP, 0.005% Tween20) and mixed with 1:2000 Streptavidin-d2 diluted in PPI-Terbium detection buffer (CisBio 61DB10RDF). 50× compound in DMSO was mixed with 16 nM KRAS-acceptor solution and incubated for 30 minutes at room temperature. After compound pre-incubation with KRAS, the RAF1 donor solution was added to the KRAS-acceptor solution and incubated for 1 hour at room temperature. The fluorescence signal emitted was monitored at 665 nm and 615 nm using an Envision multimode plate reader. The HTRF ratio (665/615) was calculated and normalized to 0% inhibition in the absence of compound and 100% inhibition in the presence of untagged RAF1 protein. […]

T2 sequence (P01116 1-169 isoform P01116-2 G12D): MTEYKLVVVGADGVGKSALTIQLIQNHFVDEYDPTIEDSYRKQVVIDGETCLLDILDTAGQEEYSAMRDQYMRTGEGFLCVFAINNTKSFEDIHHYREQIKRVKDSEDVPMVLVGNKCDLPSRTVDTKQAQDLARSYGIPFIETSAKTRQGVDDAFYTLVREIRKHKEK
T1 sequence (P01116 2-169 isoform P01116-2 G12D): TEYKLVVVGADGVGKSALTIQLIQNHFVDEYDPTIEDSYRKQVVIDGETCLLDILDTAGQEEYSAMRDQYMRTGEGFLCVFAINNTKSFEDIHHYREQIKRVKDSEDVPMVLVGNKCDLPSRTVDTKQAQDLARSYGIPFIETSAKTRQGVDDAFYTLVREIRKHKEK

| Compound | pIC50 [1] | pIC50 [2] |
| --- | --- | --- |
| Cc1noc(-c2cc3n(n2)CCCN(c2nc(OC[C@@]45CCCN4C[C@H](F)C5)nc4c2CN(C)[C@@]2(CCc5cccc(F)c52)C4)C3)n1 [Compound 73, 5-[5-[(7S)-7′-fluoro-2-[[(2R,8S)-2-fluoro-1,2,3,5,6,7-hexahydropyrrolizin-8-yl]methoxy]-6-methyl-spiro[5,8-dihydropyrido[4,3-d]pyrimidine-7,1′-indane]-4-yl]-4,6,7,8-tetrahydropyrazolo[1,5-a][1,4]diazepin-2-yl]-3-methyl-1,2,4-oxadiazole] | 7.00 to 8.00 | < 4.00 |
| Cc1noc(-c2cc3n(n2)CCCN(c2nc(OC[C@@]45CCCN4C[C@H](F)C5)nc4c2CN(C)[C@@]2(CCCc5ccccc52)C4)C3)n1 [Compound 74, 5-[5-[(7S)-2-[[(2R,8S)-2-fluoro-1,2,3,5,6,7-hexahydropyrrolizin-8-yl]methoxy]-6-methyl-spiro[5,8-dihydropyrido[4,3-d]pyrimidine-7,1′-tetralin]-4-yl]-4,6,7,8-tetrahydropyrazolo[1,5-a][1,4]diazepin-2-yl]-3-methyl-1,2,4-oxadiazole] | 7.00 to 8.00 | < 4.00 |
| CN(C)C(=O)c1nn2c(c1C#N)CN(c1nc(OC[C@@]34CCCN3C[C@H](F)C4)nc3c1CN(C)[C@@]1(CCc4cccc(F)c41)C3)CCC2 [Compound 76, 3-cyano-5-[(7S)-7′-fluoro-2-[[(2R,8S)-2-fluoro-1,2,3,5,6,7-hexahydropyrrolizin-8-yl]methoxy]-6-methyl-spiro[5,8-dihydropyrido[4,3-d]pyrimidine-7,1′-indane]-4-yl]-N,N-dimethyl-4,6,7,8-tetrahydropyrazolo[1,5-a][1,4]diazepine-2-carboxamide] | > 8.00 | 4.00 to 5.00 |
| CN(C)C(=O)c1nn2c(c1C#N)CN(c1nc(OC[C@@]34CCCN3C[C@H](F)C4)nc3c1CN(C)[C@@]1(CCCc4ccccc41)C3)CCC2 [Compound 77, 3-cyano-5-[(7S)-2-[[(2R,8S)-2-fluoro-1,2,3,5,6,7-hexahydropyrrolizin-8-yl]methoxy]-6-methyl-spiro[5,8-dihydropyrido[4,3-d]pyrimidine-7,1′-tetralin]-4-yl]-N,N-dimethyl-4,6,7,8-tetrahydropyrazolo[1,5-a][1,4]diazepine-2-carboxamide] | > 8.00 | 4.00 to 5.00 |
| CN1Cc2c(nc(OC[C@@]34CCCN3C[C@H](F)C4)nc2N2CCCn3nc(C(=O)O)c(Cl)c3C2)C[C@]12CCCc1ccccc12 [Compound 78, 3-chloro-5-[(7S)-2-[[(2R,8S)-2-fluoro-1,2,3,5,6,7-hexahydropyrrolizin-8-yl]methoxy]-6-methyl-spiro[5,8-dihydropyrido[4,3-d]pyrimidine-7,1′-tetralin]-4-yl]-4,6,7,8-tetrahydropyrazolo[1,5-a][1,4]diazepine-2-carboxylic acid] | > 8.00 | 4.00 to 5.00 |
| CN1Cc2c(nc(OCC3(CN4CCOCC4)CC3)nc2N2C[C@H]3CC[C@@H](C2)N3)C[C@]12CCCc1ccccc12 [Compound 80, 4-[[1-[[(7S)-6-methyl-4-[(1R,5S)-3,8-diazabicyclo[3.2.1]octan-3-yl]spiro[5,8-dihydropyrido[4,3-d]pyrimidine-7,1′-tetralin]-2-yl]oxymethyl]cyclopropyl]methyl]morpholine] | 7.00 to 8.00 | 4.00 to 5.00 |
| CN1Cc2c(nc(OC[C@@]34CCCN3C[C@H](F)C4)nc2N2CCCn3nc(-c4nc5ccccc5n4C)cc3C2)C[C@]12CCCc1ccccc12 [Compound 82, (7S)-2-[[(2R,8S)-2-fluoro-1,2,3,5,6,7-hexahydropyrrolizin-8-yl]methoxy]-6-methyl-4-[2-(1-methylbenzimidazol-2-yl)-4,6,7,8-tetrahydropyrazolo[1,5-a][1,4]diazepin-5-yl]spiro[5,8-dihydropyrido[4,3-d]pyrimidine-7,1′-tetralin]] | 7.00 to 8.00 | < 4.00 |
| CN1Cc2c(nc(OC[C@@]34CCCN3C[C@H](F)C4)nc2N2CCCn3nc(-c4nc5c(F)cccc5n4C)cc3C2)C[C@]12CCCc1ccccc12 [Compound 83, (7S)-2-[[(2R,8S)-2-fluoro-1,2,3,5,6,7-hexahydropyrrolizin-8-yl]methoxy]-4-[2-(4-fluoro-1-methyl-benzimidazol-2-yl)-4,6,7,8-tetrahydropyrazolo[1,5-a][1,4]diazepin-5-yl]-6-methyl-spiro[5,8-dihydropyrido[4,3-d]pyrimidine-7,1′-tetralin]] | 7.00 to 8.00 | < 4.00 |
| CN1Cc2c(nc(OC[C@@]34CCCN3C[C@H](F)C4)nc2N2C[C@H]3CC[C@@H](C2)[C@@H]3N)C[C@]12CCCc1ccccc12 [Compound 85, (1R,5S)-3-[(7S)-2-[[(2R,8S)-2-fluoro-1,2,3,5,6,7-hexahydropyrrolizin-8-yl]methoxy]-6-methyl-spiro[5,8-dihydropyrido[4,3-d]pyrimidine-7,1′-tetralin]-4-yl]-3-azabicyclo[3.2.1]octan-8-amine] | 4.70 to 6.00 | < 4.00 |
| CN1Cc2c(nc(OCC34CCCN3CC(F)C4)nc2N2CC3CCC(C2)C3NC#N)CC12CCCc1ccccc12 [Compound 86, [(1R,5S)-3-[(7S)-2-[[(2R,8S)-2-fluoro-1,2,3,5,6,7-hexahydropyrrolizin-8-yl]methoxy]-6-methyl-spiro[5,8-dihydropyrido[4,3-d]pyrimidine-7,1′-tetralin]-4-yl]-3-azabicyclo[3.2.1]octan-8-yl]cyanamide] | > 8.00 | < 4.00 |
| CN1Cc2c(nc(OC[C@@]34CCCN3C[C@H](F)C4)nc2N2CCCn3nc(-c4ccccn4)cc3C2)C[C@]12CCCc1ccccc12 [Compound 88, (7S)-2-[[(2R,8S)-2-fluoro-1,2,3,5,6,7-hexahydropyrrolizin-8-yl]methoxy]-6-methyl-4-[2-(2-pyridyl)-4,6,7,8-tetrahydropyrazolo[1,5-a][1,4]diazepin-5-yl]spiro[5,8-dihydropyrido[4,3-d]pyrimidine-7,1′-tetralin]] | 7.00 to 8.00 | < 4.00 |
| COc1cccc(-c2cc3n(n2)CCCN(c2nc(OC[C@@]45CCCN4C[C@H](F)C5)nc4c2CN(C)[C@@]2(CCCc5ccccc52)C4)C3)n1 [Compound 89, (7S)-2-[[(2R,8S)-2-fluoro-1,2,3,5,6,7-hexahydropyrrolizin-8-yl]methoxy]-4-[2-(6-methoxy-2-pyridyl)-4,6,7,8-tetrahydropyrazolo[1,5-a][1,4]diazepin-5-yl]-6-methyl-spiro[5,8-dihydropyrido[4,3-d]pyrimidine-7,1′-tetralin]] | 6.00 to 7.00 | < 4.00 |

— US11912723B2, “KRAS modulators and uses thereof” (Quanta Therapeutics, Inc., priority 2022, dated 2024)
